Assays:
Assay type in all cases: biochemical
PGDH from rat colon = target: T1, PGDH from rat colon (Rattus norvegicus, UniProt O08699); test: Inhibition of PGDH from rat colon; conditions: similarly tested, read-out: 50% PGDH inhibition at
T1 construct: PGDH from rat colon; from tissue; host or cells: rat colon
T1 sequence (O08699 1-266): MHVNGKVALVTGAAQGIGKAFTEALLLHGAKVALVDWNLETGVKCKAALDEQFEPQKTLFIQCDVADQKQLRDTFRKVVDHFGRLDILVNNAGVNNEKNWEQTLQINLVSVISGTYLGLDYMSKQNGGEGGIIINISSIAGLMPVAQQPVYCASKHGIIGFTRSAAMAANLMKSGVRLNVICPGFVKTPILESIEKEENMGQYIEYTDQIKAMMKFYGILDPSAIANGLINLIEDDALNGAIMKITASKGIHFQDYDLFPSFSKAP
Experimental: (§1) Radioactively labelled prostaglandin PGF 2 was incubated with the enzyme as according to Berry, C. N. et al., Biochem. Pharmacol. 1983, Vol. 32, p. 2863.
(§2) The compound of Example 2 was added in various concentrations, and the inhibition was measured as stated above.
When similarly tested against PGDH from rat colon the compound gave 50% PGDH inhibition at 56 nM. […] It should be noted that (V) is the strongest inhibitor of this type known in the literature.

cyclooxygenase = test: Inhibition of cyclooxygenase; conditions: at concentrations of from 10 to 1,000 nM
human PGDH = target: T2, human PGDH (Homo sapiens, UniProt P15428); test: Inhibitory effect on human PGDH isolated from placenta; conditions: radioactively labelled prostaglandin PGF 2, read-out: 50% PGDH inhibition at a concentration of
T2 construct: human PGDH isolated from placenta; from tissue; host or cells: human placenta
T2 sequence (P15428 1-266): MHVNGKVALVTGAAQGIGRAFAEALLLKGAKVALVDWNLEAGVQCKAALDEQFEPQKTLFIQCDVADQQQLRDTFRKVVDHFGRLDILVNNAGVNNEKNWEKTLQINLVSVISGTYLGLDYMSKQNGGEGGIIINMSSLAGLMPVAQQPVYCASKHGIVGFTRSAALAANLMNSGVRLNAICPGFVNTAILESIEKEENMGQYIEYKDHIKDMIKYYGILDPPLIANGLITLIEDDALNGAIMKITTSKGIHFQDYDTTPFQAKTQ
Experimental: The compound of Example 2 was studied in respect of its inhibitory effect on human PGDH isolated from placenta.
as §1, §2

IC50 (PGDH from rat colon) [nM]	inhibition of cyclooxygenase detected (cyclooxygenase)	IC50 (human PGDH) [nM]	SMILES
56	No inhibition whatever	28	COC(=O)c1cc(N=Nc2ccc(O)c(CC(=O)O)c2)cc(C(=O)OC)c1 [Example 2, 5-(3,5-bis-(methoxycarbonyl)-phenylazo)-2-hydroxy-phenylacetic acid]
		290	CCOC(=O)c1ccc(N=Nc2ccc(O)c(CC(=O)O)c2)cc1 [V, reference compound]
